Where two headings read alike, the source gives them in different places.
Legend:
[1] = target: BTK enzyme (recombinant full-length BTK, hBTK) (Homo sapiens (Human), UniProt Q06187); experiment: BTK enzymatic activity LANCE TR-FRET assay; type: biochemical; conditions: 50 pM hBTK, 25 μM ATP, 2 μM biotin-A5-peptide; compound range 1 μM to 0.017 nM; read-out: BTK binding IC50
[2] = test system: adenosine uptake into HeLa cells; experiment: [3H]Adenosine uptake assay in HeLa cells; type: cell-based; conditions: [3H]adenosine accumulation in HeLa cells, compound range 10 μM to 0.032 nM, read-out: ADU inhibition IC50
Method in brief: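 IC50 came from a 4-parameter fit of counts per second over a ten-point, 1:3 titration (final 10 µM down to […]). Compound was applied 30 min at ambient temperature in HBSS/5% FBS before a 500 nM [3H]adenosine solution was added; uptake ran 60 min, read by Cytostar-T proximity scintillation.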

Chain of BTK enzyme (recombinant full-length BTK, hBTK) (Q06187 whole entry): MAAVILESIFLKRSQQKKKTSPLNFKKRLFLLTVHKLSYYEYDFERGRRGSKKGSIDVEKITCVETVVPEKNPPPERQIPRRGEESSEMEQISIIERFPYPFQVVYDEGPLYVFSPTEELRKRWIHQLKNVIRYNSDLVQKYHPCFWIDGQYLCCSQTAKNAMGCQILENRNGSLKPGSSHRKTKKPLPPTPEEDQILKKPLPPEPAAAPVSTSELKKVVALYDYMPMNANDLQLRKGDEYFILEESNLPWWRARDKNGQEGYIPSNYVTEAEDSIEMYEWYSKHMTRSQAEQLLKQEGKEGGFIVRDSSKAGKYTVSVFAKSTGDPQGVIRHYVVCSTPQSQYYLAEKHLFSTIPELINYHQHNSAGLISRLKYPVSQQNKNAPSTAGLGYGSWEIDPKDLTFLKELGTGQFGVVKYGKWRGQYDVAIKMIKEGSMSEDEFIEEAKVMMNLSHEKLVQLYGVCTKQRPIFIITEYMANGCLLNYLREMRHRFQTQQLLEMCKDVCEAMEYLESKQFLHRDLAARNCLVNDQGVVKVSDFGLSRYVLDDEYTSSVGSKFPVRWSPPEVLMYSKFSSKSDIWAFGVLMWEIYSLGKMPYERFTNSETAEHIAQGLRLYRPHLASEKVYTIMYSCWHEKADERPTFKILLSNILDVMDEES

Row | SMILES | IC50 [1] | IC50 ([2]; Homo sapiens, HeLa) | IC50 [2]
1 | CC1OC(=O)N2C[C@H](c3nc(-c4ccc([C@@](C)(O)c5cccc(C(F)(F)F)c5)cc4)c4c(N)nccn34)OC[C@@H]12 (stereo partly drawn) [Example 8, (6R,8aS)-6-(8-amino-1-(4-((R)-1-hydroxy-1-(3-(trifluoromethyl)phenyl)ethyl)phenyl)imidazo[1,5-a]pyrazin-3-yl)-1-methyltetrahydrooxazolo[4,3-c][14]oxazin-3(1H)-one] | 20.6 nM | – | 5080 nM
2 | CC1(C)C[C@@H]2CC[C@@H](c3nc(-c4ccc([C@@](C)(O)c5cccc(C(F)(F)F)c5)cc4)c4c(N)nccn34)CN2C1=O [Example 7, (6R,8aS)-6-(8-amino-1-(4-((R)-1-hydroxy-1-(3-(trifluoromethyl)phenyl)ethyl)phenyl)imidazo[1,5-a]pyrazin-3-yl)-2,2-dimethylhexahydroindolizin-3(2H)-one] | 0.82 nM | 2790 nM | –
3 | CC(C)(C)c1cccc([C@@](C)(O)c2ccc(-c3nc([C@@H]4CC[C@H]5CCC(=O)N5C4)n4ccnc(N)c34)cc2)c1 [Example 39, (6R,8aS)-6-(8-amino-1-{4-[(1S)-1-(3-tert-butylphenyl)-1-hydroxyethyl]phenyl}imidazo[1,5-a]pyrazin-3-yl)hexahydroindolizin-3(2H)-one] | 9.6 nM | 608 nM | –
4 | CC(O)(c1ccc(-c2nc([C@@H]3CC[C@H]4CCC(=O)N4C3)n3ccnc(N)c23)cc1)c1cccc(C2CC2(F)F)c1 (stereo partly drawn) [Example 160, (6R,8aS)-6-[8-amino-1-(4-{1-[3-(2,2-difluorocyclopropyl)phenyl]-1-hydroxyethyl}phenyl)imidazo[1,5-a]pyrazin-3-yl]hexahydroindolizin-3(2H)-one] | 0.07 nM | – | 1840 nM
5 | CCOc1cc(C(C)(O)c2cccc(C(F)(F)F)c2)ccc1-c1nc([C@@H]2CC[C@H]3CCC(=O)N3C2)n2ccnc(N)c12 (stereo partly drawn) [Example 162, (6R,8aS)-6-[8-amino-1-(2-ethoxy-4-{1-hydroxy-1-[3-(trifluoromethyl)phenyl]ethyl}phenyl)imidazo [1,5-a]pyrazin-3-yl]hexahydroindolizin-3(2H)-one] | 0.63 nM | 4210 nM | –
6 | CC(O)(c1ccc(-c2nc([C@@H]3CC[C@H]4CCC(=O)N4C3)n3ccnc(N)c23)cc1)c1cccc(C2CC2(F)F)c1 (stereo partly drawn) [Example 164, (6R,8aS)-6-[8-amino-1-(4-{1-[3-(2,2-difluorocyclopropyl)phenyl]-1-hydroxyethyl}phenyl)imidazo[1,5-a]pyrazin-3-yl]hexahydroindolizin-3(2H)-one] | 48 nM | – | 830 nM
7 | C[C@@](O)(c1ccc(-c2nc([C@H]3CN4C(=O)CC[C@@H]4CO3)n3ccnc(N)c23)cc1)c1cccc(C(F)(F)F)c1 [Example 169, (3R,8aR)-3-[8-amino-1-(4-{(1R)-1-hydroxy-1-[3-(trifluoromethyl)phenyl]ethyl}phenyl)imidazo[1,5-a]pyrazin-3-yl]hexahydro-6H-pyrrolo[2,1-c][1,4]oxazin-6-one] | 7.2 nM | 4530 nM | –
8 | Nc1nccn2c([C@@H]3CC[C@H]4CCC(=O)N4C3)nc(-c3ccc([C@](O)(c4ccccc4)C(F)(F)F)cc3)c12 [Example 25, (6R,8aS)-6-(8-amino-1-{4-[(1R)-2,2,2-trifluoro-1-hydroxy-1-phenylethyl]phenyl}imidazo[1,5-a]pyrazin-3-yl)hexahydroindolizin-3(2H)-one] | 1.8 nM | 3830 nM | –
9 | CC(O)(c1ccc(-c2nc([C@@H]3CC[C@H]4CCC(=O)N4C3)n3ccnc(N)c23)cc1)C1CC2CCC1CC2 (stereo partly drawn) [Example 150, (6R,8aS)-6-{8-amino-1-[4-(1-bicyclo[2.2.2]oct-2-yl-1-hydroxyethyl)phenyl]imidazo[1,5-a]pyrazin-3-yl}hexahydroindolizin-3(2H)-one] | 1.6 nM | – | 2410 nM
10 | CC(O)(c1ccc(-c2nc([C@@H]3CC[C@H]4CCC(=O)N4C3)n3ccnc(N)c23)cc1)c1cccc(C2CC2(F)F)c1 (stereo partly drawn) [Example 159, (6R,8aS)-6-[8-amino-1-(4-{1-[3-(2,2-difluorocyclopropyl)phenyl]-1-hydroxyethyl}phenyl)imidazo[1,5-a]pyrazin-3-yl]hexahydroindolizin-3(2H)-one] | 0.1 nM | – | 1880 nM
11 | CC(C)N1CC(=O)N2C[C@H](c3nc(-c4ccc([C@@](C)(O)c5cccc(C(F)(F)F)c5)cc4)c4c(N)nccn34)CC[C@H]2C1 [Example 119, (7R,9aS)-7-(8-amino-1-(4-{(1R)-1-hydroxy-1-[3-(trifluoromethyl)phenyl]ethyl}phenyl)imidazo [1,5-a]pyrazin-3-yl]-2-(1-methylethyl)octahydro-4H-pyrido[1,2-a]pyrazin-4-one] | 33.1 nM | 2410 nM | –
12 | Cn1nc(C(C)(O)c2ccc(-c3nc([C@@H]4CC[C@H]5CCC(=O)N5C4)n4ccnc(N)c34)cc2)cc1C(F)(F)F (stereo partly drawn) [Example 35, (6R,8aS)-6-[8-amino-1-(4-{1-hydroxy-1-[1-methyl-5-(trifluoromethyl)-1H-pyrazol-3-yl]ethyl}phenyl)imidazo [1,5-a]pyrazin-3-yl]hexahydroindolizin-3(2H)-one] | 218 nM | 2230 nM | –
13 | C[C@@](O)(c1ccc(-c2nc([C@@H]3CC[C@@H]4N(C3)C(=O)CC43CC3)n3ccnc(N)c23)cc1)c1cccc(C(F)(F)F)c1 [Example 188, (6′R,8a′S)-6′-[8-amino-1-(4-{(1R)-1-hydroxy-1-[3-(trifluoromethyl)phenyl]ethyl}phenyl)imidazo [1,5-a]pyrazin-3-yl]tetrahydro-5′H-spiro[cyclopropane-1,1′-indolizin]-3′(2′H)-one] | 1.2 nM | 2500 nM | –
14 | CC(O)(c1cccc(C(F)(F)F)c1)c1ccc(-c2nc([C@@H]3CC[C@H]4CCC(=O)N4C3)n3ccnc(N)c23)c(C2CC2)c1 (stereo partly drawn) [Example 88, (6R,8aS)-6-[8-amino-1-(2-cyclopropyl-4-{1-hydroxy-1-[3-(trifluoromethyl)phenyl]ethyl}phenyl)imidazo [1,5-a]pyrazin-3-yl]hexahydroindolizin-3(2H)-one] | 576 nM | 1100 nM | –
15 | CC(O)(c1ccccc1)c1ccc(-c2nc([C@@H]3CC[C@H]4CCC(=O)N4C3)n3ccnc(N)c23)c(F)c1 (stereo partly shown) [Example 24] | 5.2 nM | 2490 nM | –
16 | Nc1nccn2c([C@@H]3CC[C@H]4CCC(=O)N4C3)nc(-c3ccc([C@@](O)(CO)c4cccc(C(F)(F)F)c4)cc3)c12 [Example 106, (6R,8aS)-6-[8-amino-1-(4-{(1S)-1,2-dihydroxy-1-[3-(trifluoromethyl)phenyl]ethyl}phenyl)imidazo [1,5-a]pyrazin-3-yl]hexahydroindolizin-3(2H)-one] | 153 nM | 6970 nM | –

Now from value to compound:

Row | IC50 [1] | IC50 ([2]; Homo sapiens, HeLa) | IC50 [2] | SMILES
17 | 22.2 nM | 5110 nM | – | C[C@@](O)(c1ccc(-c2nc([C@@H]3CC[C@H]4CCC(=O)N4C3)n3c(C(F)(F)F)cnc(N)c23)cc1)c1cccc(C(F)(F)F)c1 [Example 173, (6R,8aS)-6-[8-amino-1-(4-{(1R)-1-hydroxy-1-[3-(trifluoromethyl)phenyl]ethyl}phenyl)-5-(trifluoromethyl)imidazo [1,5-a]pyrazin-3-yl]hexahydroindolizin-3(2H)-one]
18 | 0.23 nM | 3210 nM | – | Cc1cccc([C@](C)(O)c2ccc(-c3nc([C@@H]4CC[C@H]5CCC(=O)N5C4)n4ccnc(N)c34)cc2)c1 [Example 46, (6R,8aS)-6-(8-amino-1-(4-[(1R)-1-hydroxy-1-(3-methylphenyl)ethyl]phenyl}imidazo[1,5-a]pyrazin-3-yl)hexahydroindolizin-3(2H)-one]
19 | 2.7 nM | 966 nM | – | C[C@](O)(c1ccc(-c2nc([C@@H]3CC[C@H]4CCC(=O)N4C3)n3c(Cl)cnc(N)c23)cc1)c1cccc(CC(F)(F)F)c1 [Example 122, (6R,8aS)-6-[8-amino-5-chloro-1-(4-{(1S)-1-hydroxy-1-(3-(2,2,2-trifluoroethyl)phenyl]ethyl}phenyl)imidazo[1,5-a]pyrazin-3-yl]hexahydroindolizin-3(2H)-one]
20 | 116 nM | 588 nM | – | C[C@](O)(c1ccc(-c2nc([C@@H]3CC[C@H]4CCC(=O)N4C3)n3ccnc(N)c23)cc1)c1cccc(Cl)c1 [Example 41, (6R,8aS)-6-(8-amino-1-{4-[(1S)-1-(3-chlorophenyl)-1-hydroxyethyl]phenyl}imidazo[1,5-a]pyrazin-3-yl)hexahydroindolizin-3(2H)-one]
21 | 0.66 nM | 4500 nM | – | C[C@@](O)(c1ccc(-c2nc([C@@H]3CC[C@H]4CCC(=O)N4C3)n3c(F)cnc(N)c23)cc1)c1cccc(C(F)F)c1 [Example 199, (6R,8aS)-6-(8-amino-1-(4-{(1R)-1-[3-(difluoromethyl)phenyl]-1-hydroxyethyl}phenyl)-5-fluoroimidazo[1,5-a]pyrazin-3-yl]hexahydroindolizin-3(2H)-one]
22 | 15 nM | 463 nM | – | CC(C)c1cccc([C@@](C)(O)c2ccc(-c3nc([C@@H]4CC[C@H]5CCC(=O)N5C4)n4ccnc(N)c34)cc2)c1 [Example 74, (6R,8aS)-6-[8-amino-1-(4-{(1S)-1-hydroxy-1-[3(1-methylethyl)phenyl]ethyl}phenyl)imidazo[1,5-a]pyrazin-3-yl]hexahydroindolizin-3(2H)-one]
23 | 110 nM | – | 522 nM | CC(O)(c1cccc(C(F)F)c1)c1ccc(-c2nc([C@@H]3CC[C@H]4CCC(=O)N4C3)n3ccnc(N)c23)c(F)c1 (stereo partly drawn) [Example 192, (6R,8aS)-6-(8-amino-1-(4-{1-[3-(difluoromethyl)phenyl]-1-hydroxyethyl}-2-fluorophenyl)imidazo[1,5-a]pyrazin-3-yl]hexahydroindolizin-3(2H)-one]
